Measurements published in article PMC9343605, “Structural insights into ligand recognition and selectivity of somatostatin receptors” (Cell Research, 2022).
Each block holds one compound with its values, some of them ahead of it.

Columns and labels:
SSTR4 [1] = biological target: SSTR4 (Homo sapiens, UniProt P31391, Y276A); experiment: Whole cell binding assay, SSTR4, competition with 125I-Tyr11-SST14, CHO-K1; set-up: expressed in transfected cells; details: SSTR4 mutant Y276^6.52A; mean ± SEM
Protocol: (§1) For SSTR2 and SSTR4, CHO-K1 cells were cultured in F12 medium with 10% FBS and seeded at a density of 30,000 cells/well in Isoplate-96 plates (PerkinElmer). Twenty-four hours after transfection with the WT or mutant SSTR2/SSTR4, CHO-K1 cells were washed twice and incubated with blocking buffer (F12 supplemented with 25 mM HEPES and 0.1% (w/v) BSA, pH 7.4) for 2 h at 37 °C. […] Following incubation, cells were washed three times with ice-cold PBS and lysed by 50 μL lysis buffer (PBS supplemented with 20 mM Tris-HCl, 1% Triton X-100, pH 7.4). The radioactivity was subsequently counted (counts/min, CPM) in a scintillation counter (MicroBeta[2] Plate Counter, PerkinElmer) using a scintillation cocktail (OptiPhaseSuperMix, PerkinElmer). Data were analyzed by nonlinear regression using GraphPad PRISM 8.
(§2) aMutants represent that all mutations were introduced separately into the WT receptors
and expressed in CHO K1 cells.
(§3) bThe IC50 ratio was shown as IC50(mutant)/IC50(WT), indicating the shift between the WT
(§4) and mutant curves, reflecting the effect of the mutations on ligand binding.
(§5) cData are shown as mean ± S.E.M. form at least three independent experiments
(§6) performed in technical triplicate. One-way ANOVA was performed followed by
(§7) Dunnett’s post-test and compared with WT.
(§8) d The span is defined as the window between the maximal agonists response (Emax) and
(§9) e Sample size; the number of independent experiments performed in technical triplicate.

SSTR4 [2] = biological target: SSTR4 (Homo sapiens, UniProt P31391, V264F); experiment: as above; set-up: expressed in transfected cells; details: Construct 4 SSTR4, mean ± SEM
Protocol: as §1, §2
and expressed in CHO K1 cells.
as §3, §4, §5, §6, §7, §8, §9

SSTR4 [3] = biological target: SSTR4 (Homo sapiens, UniProt P31391); experiment: as above; set-up: expressed in transfected cells; details: WT SSTR4, mean ± SEM
Protocol: as §1, §2
and expressed in CHO K1 cells.
as §3, §4, §5, §6, §7, §8, §9

SSTR4 [4] = biological target: SSTR4 (Homo sapiens, UniProt P31391, D126A); experiment: as above; set-up: expressed in transfected cells; details: SSTR4 mutant D126^3.32A; mean ± SEM
Protocol: as §1, §2
and expressed in CHO K1 cells.
as §3, §4, §5, §6, §7, §8, §9

SSTR4 [5] = biological target: SSTR4 (Homo sapiens, UniProt P31391, M130A); experiment: as above; set-up: expressed in transfected cells; details: SSTR4 mutant M130^3.36A; mean ± SEM
Protocol: as §1, §2
and expressed in CHO K1 cells.
as §3, §4, §5, §6, §7, §8, §9

SSTR4 [6] = biological target: SSTR4 (Homo sapiens, UniProt P31391, N199A); experiment: as above; set-up: expressed in transfected cells; details: SSTR4 mutant N199^ECL2A; mean ± SEM
Protocol: as §1, §2
and expressed in CHO K1 cells.
as §3, §4, §5, §6, §7, §8, §9

SSTR4 [7] = biological target: SSTR4 (Homo sapiens, UniProt P31391, F275A); experiment: as above; set-up: expressed in transfected cells; details: SSTR4 mutant F275^6.51A; mean ± SEM
Protocol: as §1, §2
and expressed in CHO K1 cells.
as §3, §4, §5, §6, §7, §8, §9

SSTR4 [8] = biological target: SSTR4 (Homo sapiens, UniProt P31391, Q279A); experiment: as above; set-up: expressed in transfected cells; details: SSTR4 mutant Q279^6.55A; mean ± SEM
Protocol: as §1, §2
and expressed in CHO K1 cells.
as §3, §4, §5, §6, §7, §8, §9

SSTR4 [9] = biological target: SSTR4 (Homo sapiens, UniProt P31391, Y301A); experiment: as above; set-up: expressed in transfected cells; details: SSTR4 mutant Y301^7.43A; mean ± SEM
Protocol: as §1, §2
and expressed in CHO K1 cells.
as §3, §4, §5, §6, §7, §8, §9

SSTR4 [10] = biological target: SSTR4 (Homo sapiens, UniProt P31391, T215A); experiment: as above; set-up: expressed in transfected cells; details: SSTR4 mutant T215^5.42A; mean ± SEM
Protocol: as §1, §2
and expressed in CHO K1 cells.
as §3, §4, §5, §6, §7, §8, §9

SSTR4 [11] = experiment: as above; set-up: species or system human; details: IC50(mutant)/IC50(WT)
Protocol: as §1, §2
and expressed in CHO K1 cells.
as §3, §4, §5, §6, §7, §8, §9

SSTR2 [12] = biological target: SSTR2 (Homo sapiens, UniProt P30874, Y302A); experiment: cAMP accumulation assay (agonist-induced inhibition of forskolin-stimulated cAMP), SSTR2, HEK293F; format: cell-based; set-up: expressed in transfected cells; host or cells: HEK293F; details: SSTR2 mutant Y302^7.43A; mean ± SEM;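 note: transiently transfected cells exposed to 2 µM forskolin and a ligand concentration series for 40 min at room temperature in IBMX-containing HBSS, then cAMP quantified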
SSTR2 [13] = biological target: SSTR2 (Homo sapiens, UniProt P30874, F294A); experiment: as above; format: cell-based; set-up: expressed in transfected cells; host or cells: HEK293F; details: SSTR2 mutant F294^7.35A; mean ± SEM
SSTR2 [14] = biological target: SSTR2 (Homo sapiens, UniProt P30874, Q126A); experiment: as above; format: cell-based; set-up: expressed in transfected cells; host or cells: HEK293F; details: SSTR2 mutant Q126^3.36A; mean ± SEM
SSTR2 [15] = biological target: SSTR2 (Homo sapiens, UniProt P30874, Y205A); experiment: as above; format: cell-based; set-up: expressed in transfected cells; host or cells: HEK293F; details: SSTR2 mutant Y205^5.35A
SSTR2 [16] = biological target: SSTR2 (Homo sapiens, UniProt P30874, Q102A); experiment: as above; format: cell-based; set-up: expressed in transfected cells; host or cells: HEK293F; details: SSTR2 mutant Q102^2.63A; mean ± SEM
SSTR2 [17] = biological target: SSTR2 (Homo sapiens, UniProt P30874, T212A); experiment: as above; format: cell-based; set-up: expressed in transfected cells; host or cells: HEK293F; details: SSTR2 mutant T212^5.42A; mean ± SEM
SSTR2 [18] = biological target: SSTR2 (Homo sapiens, UniProt P30874, F272A); experiment: as above; format: cell-based; set-up: expressed in transfected cells; host or cells: HEK293F; details: SSTR2 mutant F272^6.51A; mean ± SEM
SSTR2 [19] = biological target: SSTR2 (Homo sapiens, UniProt P30874, T194A); experiment: as above; format: cell-based; set-up: expressed in transfected cells; host or cells: HEK293F; details: SSTR2 mutant T194^ECL2A; mean ± SEM
SSTR2 [20] = biological target: SSTR2 (Homo sapiens, UniProt P30874, D122A); experiment: as above; format: cell-based; set-up: expressed in transfected cells; host or cells: HEK293F; details: SSTR2 mutant D122^3.32A; mean ± SEM
SSTR2 [21] = biological target: SSTR2 (Homo sapiens, UniProt P30874); experiment: as above; format: cell-based; set-up: expressed in transfected cells; host or cells: HEK293F; details: WT SSTR2
Chain of SSTR2 (Homo sapiens, UniProt P30874) (P30874 whole entry): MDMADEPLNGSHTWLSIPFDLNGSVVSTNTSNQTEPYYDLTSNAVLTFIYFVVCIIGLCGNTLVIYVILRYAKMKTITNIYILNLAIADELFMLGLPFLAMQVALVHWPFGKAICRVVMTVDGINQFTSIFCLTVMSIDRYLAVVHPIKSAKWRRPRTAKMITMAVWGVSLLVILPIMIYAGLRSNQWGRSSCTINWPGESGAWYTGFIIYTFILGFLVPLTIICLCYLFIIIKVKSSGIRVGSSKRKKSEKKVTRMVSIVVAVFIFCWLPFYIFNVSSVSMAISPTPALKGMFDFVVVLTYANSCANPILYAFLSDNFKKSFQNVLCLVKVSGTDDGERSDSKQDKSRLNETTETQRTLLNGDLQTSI

Chain of SSTR4 (Homo sapiens, UniProt P31391, V264F) (P31391 1-328 V264F): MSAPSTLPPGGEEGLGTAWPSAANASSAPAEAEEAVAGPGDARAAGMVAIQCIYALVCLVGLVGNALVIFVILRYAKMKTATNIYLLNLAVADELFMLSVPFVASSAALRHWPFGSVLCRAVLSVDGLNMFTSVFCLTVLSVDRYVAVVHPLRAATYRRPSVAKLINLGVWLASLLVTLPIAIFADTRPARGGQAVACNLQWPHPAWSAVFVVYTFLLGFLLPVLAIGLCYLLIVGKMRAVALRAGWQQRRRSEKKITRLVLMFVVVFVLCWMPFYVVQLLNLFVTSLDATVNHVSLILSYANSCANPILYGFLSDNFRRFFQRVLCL
Chain of SSTR4 (Homo sapiens, UniProt P31391) (P31391 whole entry): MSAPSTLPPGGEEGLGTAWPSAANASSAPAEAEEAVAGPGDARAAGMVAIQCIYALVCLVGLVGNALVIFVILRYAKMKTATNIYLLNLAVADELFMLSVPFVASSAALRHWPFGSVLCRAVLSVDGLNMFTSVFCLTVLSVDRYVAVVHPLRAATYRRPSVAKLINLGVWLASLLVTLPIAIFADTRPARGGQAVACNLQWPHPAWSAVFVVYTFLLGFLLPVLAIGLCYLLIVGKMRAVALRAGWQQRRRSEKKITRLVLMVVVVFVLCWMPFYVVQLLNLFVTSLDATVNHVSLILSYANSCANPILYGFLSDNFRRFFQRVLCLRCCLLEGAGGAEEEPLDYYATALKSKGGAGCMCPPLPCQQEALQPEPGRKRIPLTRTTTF
Chain of SSTR2 (Homo sapiens, UniProt P30874, Y205A) (P30874 whole entry Y205A): as the sequence (P30874 whole entry) above, with Y205A counted along it
Chain of SSTR2 (Homo sapiens, UniProt P30874, Q126A) (P30874 whole entry Q126A): as the sequence (P30874 whole entry) above, with Q126A counted along it
Chain of SSTR4 (Homo sapiens, UniProt P31391, Q279A) (P31391 whole entry Q279A): as the sequence (P31391 whole entry) above, with Q279A counted along it
Chain of SSTR4 (Homo sapiens, UniProt P31391, T215A) (P31391 whole entry T215A): as the sequence (P31391 whole entry) above, with T215A counted along it
Chain of SSTR2 (Homo sapiens, UniProt P30874, Q102A) (P30874 whole entry Q102A): as the sequence (P30874 whole entry) above, with Q102A counted along it
Chain of SSTR2 (Homo sapiens, UniProt P30874, F294A) (P30874 whole entry F294A): as the sequence (P30874 whole entry) above, with F294A counted along it
Chain of SSTR2 (Homo sapiens, UniProt P30874, T194A) (P30874 whole entry T194A): as the sequence (P30874 whole entry) above, with T194A counted along it
Chain of SSTR2 (Homo sapiens, UniProt P30874, Y302A) (P30874 whole entry Y302A): as the sequence (P30874 whole entry) above, with Y302A counted along it
Chain of SSTR2 (Homo sapiens, UniProt P30874, T212A) (P30874 whole entry T212A): as the sequence (P30874 whole entry) above, with T212A counted along it
Chain of SSTR2 (Homo sapiens, UniProt P30874, D122A) (P30874 whole entry D122A): as the sequence (P30874 whole entry) above, with D122A counted along it
Chain of SSTR2 (Homo sapiens, UniProt P30874, F272A) (P30874 whole entry F272A): as the sequence (P30874 whole entry) above, with F272A counted along it
Chain of SSTR4 (Homo sapiens, UniProt P31391, D126A) (P31391 whole entry D126A): as the sequence (P31391 whole entry) above, with D126A counted along it
Chain of SSTR4 (Homo sapiens, UniProt P31391, F275A) (P31391 whole entry F275A): as the sequence (P31391 whole entry) above, with F275A counted along it
Chain of SSTR4 (Homo sapiens, UniProt P31391, Y276A) (P31391 whole entry Y276A): as the sequence (P31391 whole entry) above, with Y276A counted along it
Chain of SSTR4 (Homo sapiens, UniProt P31391, Y301A) (P31391 whole entry Y301A): as the sequence (P31391 whole entry) above, with Y301A counted along it
Chain of SSTR4 (Homo sapiens, UniProt P31391, M130A) (P31391 whole entry M130A): as the sequence (P31391 whole entry) above, with M130A counted along it
Chain of SSTR4 (Homo sapiens, UniProt P31391, N199A) (P31391 whole entry N199A): as the sequence (P31391 whole entry) above, with N199A counted along it

Span (SSTR4 [1]): 9±3 % of WT
pKi ± SEM (SSTR4 [2]; competition with 125I-SST-14): 9.47
Span (SSTR4 [2]): 96±9 % of WT
pIC50 ± SEM (SSTR4 [2]): 9.47±0.25
pKi ± SEM (SSTR4 [3]; competition with 125I-SST-14): 9.21 ± 0.14
Span (SSTR4 [3]): 100±6 % of WT
pIC50 ± SEM (SSTR4 [3]; at least three independent experiments): 9.21±0.14
Span (SSTR4 [4]): 12±3 % of WT
Span (SSTR4 [5]): 12±4 % of WT
Span (SSTR4 [6]): 13±3 % of WT
Span (SSTR4 [7]): 11 ± 4 % of WT
Span (SSTR4 [8]): 26±4 % of WT
pIC50 ± SEM (SSTR4 [8]): 8.93±0.38
Span (SSTR4 [9]): 15±5 % of WT
Span (SSTR4 [10]): 67±4 % of WT
pIC50 ± SEM (SSTR4 [10]): 9.08±0.16
IC50 ratio (SSTR4 [11]; Construct 4 SSTR4): 0.5
IC50 ratio (SSTR4 [11]; SSTR4 mutant Q279^6.55A): 2
IC50 ratio (SSTR4 [11]; SSTR4 mutant T215^5.42A): 1
IC50 ratio (SSTR4 [11]; WT SSTR4): 1
Compound: Cc1ccc(S(=O)(=O)N[C@@H](CCN)C(=O)N[C@@H](Cc2ccccc2)C(N)=O)c2ccccc12 [J-2156]

Span (SSTR2 [12]): 96±8 % of WT
pEC50 ± SEM (SSTR2 [12]): 8.67±0.19
Span (SSTR2 [13]): 95±8 % of WT
pEC50 ± SEM (SSTR2 [13]): 8.36±0.20
Span (SSTR2 [14]): 82±6 % of WT
pEC50 ± SEM (SSTR2 [14]): 9.18±0.17
EC50 (SSTR2 [15]): 0.01 nM
Span (SSTR2 [15]; mean ± SEM): 143±18 % of WT
Span (SSTR2 [16]): 79±6 % of WT
pEC50 ± SEM (SSTR2 [16]): 9.46±0.18
Span (SSTR2 [17]): 108±5 % of WT
pEC50 ± SEM (SSTR2 [17]): 8.94±0.12
Span (SSTR2 [18]): 215±18 % of WT
pEC50 ± SEM (SSTR2 [18]): 7.85±0.19
Span (SSTR2 [19]): 104±10 % of WT
pEC50 ± SEM (SSTR2 [19]): 9.26±0.23
Span (SSTR2 [20]): 41±6 % of WT
pEC50 ± SEM (SSTR2 [20]): 7.37±0.27
EC50 ratio (SSTR2 [21]; EC50(mutant)/EC50(WT)): 1
pEC50 ± SEM (SSTR2 [21]; HEK293F, mean ± SEM, at least three independent experiments): 9.67±0.08
Span (SSTR2 [21]; window between Emax and vehicle, mean ± SEM): 100±4 % of WT
Compound: C[C@@H](c1c[nH]c2ccccc12)[C@@H](NC(=O)N1CCC(n2c(=O)[nH]c3ccccc32)CC1)C(=O)N[C@@H](CCCCN)C(=O)OC(C)(C)C [L-054,522]
